# Data: patent publication EP2363475A1, “SCREENING METHOD, COMPOSITION CONTAINING SUBSTANCE SELECTED BY THE SCREENING METHOD, AND BINDING SUBSTANCE” (Redox Bioscience Inc., priority 2008, dated 2010)
# Target: T1, bond between rTRX and rMIF (Homo sapiens, UniProt P10599)
# T1 construct: His tag; made in house; host or cells: Escherichia coli
# T1 sequence (P10599 1-105): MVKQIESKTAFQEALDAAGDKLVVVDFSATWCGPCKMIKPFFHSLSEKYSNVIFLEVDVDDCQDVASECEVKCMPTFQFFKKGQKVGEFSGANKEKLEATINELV
# Experiment: Screening by molecular interaction analysis (Biacore, SPR) for test substances that strengthen the bond between TRX and MIF
# Format: binding
# Conditions: test substance 500 µM mixed with rTRX 5 µM (Prostaglandin 12 also at 5 µM); FIGS. 7 to 11
# Method: For several test substances, it was confirmed with a molecular interaction analysis whether they strengthened the bond between TRX and MIF or not.
# rTRX; (same as the rTRX of Example 5) rMIF; (same as the rMIF of Example 5) BIAcore2000; (CM5 sensor chip)
# N-acetylglucosamine Nitrosoglutathione Prostaglandin 12
# rMIF was immobilized in a CM5 sensor chip as a ligand. The ligand was adjusted to have the rMIF concentration of less or equal to 200 nM by using running buffer, 10 mM HEPES (pH7.4), 150 mM NaCl, 3 mM EDTA and 0.005% Tween 20.
# Then, N-acetylglucosamine, Nitrosoglutathione and Prostaglandin 12 were mixed with rTRX, respectively, to form three types of analytes.
# In each analyte, the concentration of rTRX was 5 µM and the concentration of the test substance was 500 µM. For Prostaglandin 12, the analyte having its concentration of 5 µM was also analyzed.
substance,measurement,value
Prostaglandin 12,effect on the bond between rTRX and rMIF,remarkably strengthen the bond between rTRX and rMIF
